ChEMBL document CHEMBL1201862, “PubChem BioAssay data set” (2004)
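Dose response: 5 concentrations. Exposure: 48 h. Format: 96-well plates. Endpoint: linear interpolation; highest concentration if not reached. At the GI50, growth is halved.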 Active and inactive are the calls of the source. Cut-off read from the data, not from the text of the source: active = GI50 up to about 1.1 µM and inactive = higher.

Legend:
Test in all cases: NCI anticancer screen, dose series, 48 h
DU-145 = tested on: DU-145
NCI-H226 = tested on: NCI-H226
Hs-578T = tested on: Hs-578T
IGROV-1 = tested on: IGROV-1
NCI-H23 = tested on: NCI-H23
CAKI-1 = tested on: CAKI-1
K562 = tested on: K562
EKVX = tested on: EKVX
CCRF-CEM = tested on: CCRF-CEM
OVCAR-8 = tested on: OVCAR-8
HT-29 = tested on: HT-29
HCT-116 = tested on: HCT-116
KM12 = tested on: KM12
A549 = tested on: A549
SK-OV-3 = tested on: SK-OV-3
MDA-MB-231 = tested on: MDA-MB-231
MDA-MB-435 = tested on: MDA-MB-435
HCC 2998 = tested on: HCC 2998
HL-60 = tested on: HL-60

Measured: GI50

c1ccc(CCN2CCCCCC2)nc1
inactive: DU-145 > 100 µM | NCI-H226 > 100 µM | Hs-578T > 100 µM | IGROV-1 > 100 µM | NCI-H23 > 100 µM | CAKI-1 > 100 µM | K562 > 100 µM | EKVX 66.8 µM | CCRF-CEM > 100 µM | OVCAR-8 > 100 µM | HT-29 > 100 µM | HCT-116 > 100 µM | KM12 > 100 µM | A549 > 100 µM | SK-OV-3 > 100 µM | MDA-MB-231 > 100 µM | MDA-MB-435 > 100 µM

CC(C)Sc1nncc(/C(N)=N/O)n1
inactive: DU-145 > 100 µM | NCI-H226 > 100 µM | IGROV-1 > 100 µM | NCI-H23 > 100 µM | CAKI-1 > 100 µM | K562 > 100 µM | EKVX > 100 µM | CCRF-CEM > 100 µM | OVCAR-8 > 100 µM | HT-29 > 100 µM | HCT-116 > 100 µM | KM12 88.5 µM | A549 > 100 µM | SK-OV-3 > 100 µM | HCC 2998 > 100 µM | MDA-MB-231 > 100 µM | MDA-MB-435 > 100 µM

Cc1nn(C(=O)c2ccccc2O)c2c1C(c1ccc3ccccc3c1O)SC(=N)N2 (stereo unspecified)
inactive: NCI-H226 2.65 µM | Hs-578T 1.7 µM | IGROV-1 3.61 µM | NCI-H23 4.97 µM | CAKI-1 3.52 µM | K562 3.6 µM | EKVX 9.79 µM | CCRF-CEM 3.76 µM | OVCAR-8 5.11 µM | HT-29 9.55 µM | HCT-116 1.5 µM | KM12 7.46 µM | A549 4.91 µM | SK-OV-3 6.3 µM | MDA-MB-231 3.05 µM | MDA-MB-435 5.93 µM

O=C(N/C(=C\NC1=NCCS1)C(=O)N1CSC[C@@H]1C(=O)O)c1ccccc1
inactive: DU-145 > 100 µM | NCI-H226 > 100 µM | NCI-H23 > 100 µM | CAKI-1 > 100 µM | K562 > 100 µM | EKVX > 100 µM | CCRF-CEM > 100 µM | HL-60 > 100 µM | OVCAR-8 > 100 µM | HT-29 > 100 µM | HCT-116 > 100 µM | KM12 > 100 µM | A549 > 100 µM | SK-OV-3 > 100 µM | HCC 2998 > 100 µM | MDA-MB-231 > 100 µM | MDA-MB-435 > 100 µM

CC(=O)Oc1ccc2cc(Oc3ccc(Cl)cc3)c(=O)oc2c1
inactive: DU-145 53.6 µM | NCI-H226 41.5 µM | Hs-578T 79.1 µM | IGROV-1 30.1 µM | NCI-H23 41.4 µM | CAKI-1 53 µM | EKVX 36.5 µM | HL-60 49.4 µM | OVCAR-8 19.1 µM | HT-29 63.7 µM | HCT-116 27.5 µM | KM12 37.8 µM | A549 21.6 µM | HCC 2998 35.8 µM | MDA-MB-231 44.3 µM

Cc1cccnc1N/C=C1\C(=O)NC(=O)N(C)C1=O
inactive: DU-145 > 100 µM | NCI-H226 > 100 µM | Hs-578T > 100 µM | IGROV-1 64.1 µM | NCI-H23 49.7 µM | CAKI-1 > 100 µM | EKVX 44 µM | HL-60 > 100 µM | OVCAR-8 > 100 µM | HT-29 > 100 µM | HCT-116 > 100 µM | KM12 > 100 µM | A549 > 100 µM | SK-OV-3 > 100 µM | MDA-MB-435 > 100 µM

O=C(NN1C(=O)c2ccccc2C1=O)c1ccccc1Nc1ccccc1C(=O)NN1C(=O)c2ccccc2C1=O
inactive: DU-145 > 100 µM | NCI-H226 > 100 µM | IGROV-1 > 100 µM | NCI-H23 > 100 µM | CAKI-1 > 100 µM | K562 > 100 µM | EKVX > 100 µM | CCRF-CEM > 100 µM | HL-60 > 100 µM | OVCAR-8 > 100 µM | HT-29 > 100 µM | HCT-116 > 100 µM | KM12 > 100 µM | HCC 2998 > 100 µM | MDA-MB-231 > 100 µM | MDA-MB-435 > 100 µM

Cc1cc(Cc2cc(C)c(NC(=O)C(=O)C3CCC4=C(SC5C=CC=CC5N4)C3=O)c(C(C)C)c2)cc(C(C)C)c1NC(=O)C(=O)C1CCC2=C(SC3C=CC=CC3N2)C1=O (stereo unspecified)
inactive: DU-145 > 100 µM | NCI-H226 31 µM | IGROV-1 34 µM | NCI-H23 41.4 µM | CAKI-1 53.6 µM | K562 55.7 µM | EKVX 52.7 µM | CCRF-CEM 46.5 µM | HL-60 40.6 µM | OVCAR-8 29.7 µM | HT-29 58.6 µM | HCT-116 47 µM | KM12 43.3 µM | A549 64 µM | SK-OV-3 > 100 µM | HCC 2998 30.5 µM | MDA-MB-231 95.9 µM | MDA-MB-435 > 100 µM
